pIC50: −log10 of the molar value. Like-named read-outs stand apart in the source and are kept apart here.
Tested on: H460 non-cell lung cancer human tumor cell line
Assay: In vitro human tumor cell line cytotoxicity (proliferation) assay, AlamarBlue
Assay type: cell-based
Method: IC50 values are reported in micromolar and result from exposure of compound at various concentrations for 2 hrs followed by a wash step and addition of fresh media followed by growth and cell viability staining and comparison to a media only treated control.
Specifically, exponentially growing cells are seeded at a density of 4×10^3 cells per well in a 96 well plate and incubated at 37° C. in 5% CO2, 95% air and 100% relative humidity for 24 hours prior to addition of test compounds. Compounds are solubilized in 100% DMSO at 200 times the desired final test concentration. At the time of drug addition, compounds are further diluted to 4 times the desired final concentration with complete medium. Aliquots of 50 μl of compound at specified concentrations are added to microtiter wells already containing 150 μl of medium, resulting in the final drug concentration reported. After drug addition, the plates are incubated for an additional 2 hours at 37° C., 5% CO2, 95% air, and 100% relative humidity, then the drug is washed off and fresh medium is added and the plates are incubated for addition 70 hrs at 37° C., 5% CO2, 95% air and 100% relative humidity. At the end of this incubation, the viable cells are quantified using the AlamarBlue assay. The drug concentration resulting in growth inhibition of 50% (IC50) is calculated using Prism software (Irvine, Calif.), and the results are listed in the table.

[1] = Homo sapiens, NCI-H460, H460 cells, under air, 2 hrs exposure, wash, then 70 hrs growth, read-out: IC50 (air)
[2] = Homo sapiens, NCI-H460, H460 cells, under nitrogen, 2 hrs exposure, wash, then 70 hrs growth, read-out: IC50 (N2)
[3] = Homo sapiens, NCI-H460, read-out: IC50 (N2), H460 cells, under nitrogen, 2 hrs exposure, wash, then 70 hrs growth
[4] = Homo sapiens, NCI-H460, read-out: IC50 (air), H460 cells, under air, 2 hrs exposure, wash, then 70 hrs growth
[5] = H460 cells, under air, 2 hrs exposure, wash, then 70 hrs growth, read-out: IC50 (air)
[6] = H460 cells, under nitrogen, 2 hrs exposure, wash, then 70 hrs growth, read-out: IC50 (N2)

| Structure (SMILES) | pIC50 [1] | pIC50 [2] | further results |
| --- | --- | --- | --- |
| Cn1c(C(OP(=O)(N2CC2)N2CC2)C(F)(F)F)cnc1[N+](=O)[O-] (stereo not drawn) [compound 2118] | 5.21 | 8.00 | – |
| CCc1nc([N+](=O)[O-])n(C)c1COP(=O)(N1CC1)N1CC1 [compound 2119] | 6.05 | 7.52 | – |
| CC(C)(C)C(OP(=O)(N1CC1)N1CC1)c1ccc([N+](=O)[O-])o1 (stereo not drawn) [compound 2127] | 4.74 | 7.70 | – |
| Cn1c(C(OP(=O)(N2CC2)N2CC2)C(F)(F)C(F)(F)F)cnc1[N+](=O)[O-] (stereo not drawn) [compound 2128] | 4.74 | 7.70 | – |
| C=Cc1nc([N+](=O)[O-])n(C)c1COP(=O)(N1CC1)N1CC1 [compound 2129] | 6.15 | 7.10 | – |
| C=Cc1nc([N+](=O)[O-])n(C)c1COP(=O)(NCCBr)N1CC1 (stereo not drawn) [compound 2130] | – | – | pIC50 [3]: 8.30; pIC50 [4]: 5.89 |
| Cn1c([N+](=O)[O-])cnc1COP(=O)(N1CC1)N1CC1 [compound 2136] | 4.62 | 7.00 | – |
| Cn1c([N+](=O)[O-])nc(C(F)F)c1COP(=O)(N1CC1)N1CC1 [compound 2137] | 5.66 | 7.70 | – |
| CC(OP(=O)(N1CC1)N1CC1)c1ccc([N+](=O)[O-])o1 (stereo not drawn) [compound 2138] | 6.52 | 8.22 | – |
| O=[N+]([O-])c1ccc(C(OP(=O)(N2CC2)N2CC2)C(F)(F)F)o1 (stereo not drawn) [compound 2139] | 6.52 | 8.40 | – |
| Cn1c([N+](=O)[O-])nc(-c2ccco2)c1COP(=O)(N1CC1)N1CC1 [compound 2141] | 6.30 | 7.10 | – |
| Cn1c([N+](=O)[O-])cnc1C(OP(=O)(N1CC1)N1CC1)C(F)(F)F (stereo not drawn) [compound 2145] | 3.77 | 6.40 | – |
| Cn1c([N+](=O)[O-])nc(CCN2CCOCC2)c1C(OP(=O)(N1CC1)N1CC1)C(F)(F)F (stereo not drawn) [compound 2147] | 3.51 | 5.96 | – |
| CCCCCCCC/C=C/CCCCCCCC(=O)N(C)Cc1nc([N+](=O)[O-])n(C)c1COP(=O)(N1CC1)N1CC1 [compound 2334] | 6.85 | 8.05 | – |
| CC(OP(=O)(N1CC1)N1CC1)c1ncc([N+](=O)[O-])n1C (stereo not drawn) [compound 2501] | 4.68 | 7.30 | – |
| CC(C)C(OP(=O)(N1CC1)N1CC1)c1ncc([N+](=O)[O-])n1C (stereo not drawn) [compound 2518] | 3.38 | 6.22 | – |
| Cn1c([N+](=O)[O-])cnc1C(OP(=O)(NCCBr)NCCBr)C1CC1 (stereo not drawn) [compound 2519] | – | – | pIC50 [3]: < 3.30; pIC50 [4]: < 3.30 |
| Cn1c([N+](=O)[O-])cnc1C(OP(=O)(N1CC1)N1CC1)C1CC1 (stereo not drawn) [compound 2520] | 4.70 | 5.06 | – |
| Cn1c([N+](=O)[O-])nc(-c2sc(Br)c(Br)c2Br)c1COP(=O)(N1CC1)N1CC1 [compound 2523] | 6.40 | 7.70 | – |
| Cn1c([N+](=O)[O-])nc(-c2cc(Cl)c(Cl)s2)c1COP(=O)(N1CC1)N1CC1 [compound 2525] | 6.15 | 7.70 | – |
| C=CCC(OP(=O)(N1CC1)N1CC1)c1ncc([N+](=O)[O-])n1C (stereo not drawn) [compound 2527] | 4.41 | 7.05 | – |
| CCCC(OP(=O)(N1CC1)N1CC1)c1ncc([N+](=O)[O-])n1C (stereo not drawn) [compound 2529] | 4.48 | 6.70 | – |
| Cn1c([N+](=O)[O-])cnc1C(OP(=O)(N1CC1)N1CC1)C(C)(C)C (stereo not drawn) [compound 2535] | 3.30 | 4.59 | – |
| CC(OP(=O)(N1CC1)N1CC1)c1ccc([N+](=O)[O-])cc1 (stereo not drawn) [compound 2537] | – | – | pIC50 [3]: 6.52; pIC50 [4]: 4.28 |
| Cn1c([N+](=O)[O-])cnc1C(OP(=O)(N1CC1)N1CC1)c1ccccc1 (stereo not drawn) [compound 2542] | 5.47 | 5.82 | – |
| CC(C)C(OP(=O)(N1CC1)N1CC1)c1ncc([N+](=O)[O-])n1CCN1CCOCC1 (stereo not drawn) [compound 2544] | 4.35 | 6.70 | – |

| Structure (SMILES) | pIC50 [1] | pIC50 [2] | further results |
| --- | --- | --- | --- |
| CC(OP(=O)(N1CC1)N1CC1)c1ccccc1[N+](=O)[O-] (stereo not drawn) [compound 2547] | 3.49 | 5.59 | – |
| O=[N+]([O-])c1ccc(COP(=O)(N2CC2)N2CC2)cc1 [compound 2550] | 4.54 | 5.74 | – |
| CC(OP(=O)(N1CC1)N1CC1)c1ncc([N+](=O)[O-])n1C (stereo not drawn) [compound 2551] | – | – | pIC50 [5]: 4.70; pIC50 [6]: 7.00 |
| CC(OP(=O)(N1CC1)N1CC1)c1ncc([N+](=O)[O-])n1C (stereo not drawn) [compound 2552] | – | – | pIC50 [5]: 4.64; pIC50 [6]: 7.00 |
| COc1cc([N+](=O)[O-])ccc1COP(=O)(N1CC1)N1CC1 [compound 2554] | 5.52 | 7.00 | – |
| Cc1cc([N+](=O)[O-])ccc1COP(=O)(N1CC1)N1CC1 [compound 2556] | 4.77 | 6.15 | – |
| CC(OP(=O)(N1CC1)N1CC1)c1c([N+](=O)[O-])ncn1C (stereo not drawn) [compound 2560] | 4.40 | 5.43 | – |
| Cn1c([N+](=O)[O-])cnc1C(OP(=O)(N1CC1)N1CC1)C1CCCC1 (stereo not drawn) [compound 2561] | 4.54 | 6.70 | – |
| O=[N+]([O-])c1ccccc1C(OP(=O)(N1CC1)N1CC1)c1ccccc1 (stereo not drawn) [compound 2563] | 4.82 | 5.49 | – |
| CC(C)C(OP(=O)(N1CC1)N1CC1)c1ncc([N+](=O)[O-])n1C (stereo not drawn) [compound 2567] | – | – | pIC50 [5]: 3.57; pIC50 [6]: 6.52 |
| CC(C)C(OP(=O)(N1CC1)N1CC1)c1ncc([N+](=O)[O-])n1C (stereo not drawn) [compound 2568] | – | – | pIC50 [5]: 3.46; pIC50 [6]: 6.52 |
| C=CCC(OP(=O)(N1CC1)N1CC1)c1ccc([N+](=O)[O-])cc1OC (stereo not drawn) [compound 2569] | 5.70 | 7.30 | – |
| CC(C)C(OP(=O)(N1CC1)N1CC1)c1ccc([N+](=O)[O-])cc1 (stereo not drawn) [compound 2572] | 4.54 | 5.80 | – |
| C=CCCn1c([N+](=O)[O-])cnc1C(OP(=O)(N1CC1)N1CC1)C(C)C (stereo not drawn) [compound 2574] | 4.54 | 7.00 | – |
| O=[N+]([O-])c1ccc(COP(=O)(N2CC2)N2CC2)c(Cl)c1 [compound 2576] | 5.74 | 7.00 | – |
| O=[N+]([O-])c1ccccc1COP(=O)(N1CC1)N1CC1 [compound 2578] | 4.55 | 5.22 | – |
| O=[N+]([O-])c1ccc(COP(=O)(N2CC2)N2CC2)cc1Cl [compound 2579] | 5.59 | 5.89 | – |
| Cc1cc(COP(=O)(N2CC2)N2CC2)ccc1[N+](=O)[O-] [compound 2580] | 4.70 | 5.43 | – |
| C=CCCn1c([N+](=O)[O-])cnc1COP(=O)(N1CC1)N1CC1 [compound 2582] | 4.74 | 7.00 | – |
| Cc1cccc([N+](=O)[O-])c1COP(=O)(N1CC1)N1CC1 [compound 2588] | 5.00 | 5.89 | – |
| COc1ccc(COP(=O)(N2CC2)N2CC2)c([N+](=O)[O-])c1 [compound 2589] | 5.02 | 7.00 | – |
| Cc1ccc(COP(=O)(N2CC2)N2CC2)c([N+](=O)[O-])c1 [compound 2590] | 4.82 | 5.54 | – |
| Cn1c([N+](=O)[O-])cnc1C(Cc1ccccc1)OP(=O)(N1CC1)N1CC1 (stereo not drawn) [compound 2591] | 4.72 | 7.00 | – |
| O=[N+]([O-])c1cc(Cl)ccc1COP(=O)(N1CC1)N1CC1 [compound 2592] | 5.48 | 6.15 | – |
| CCCCn1c([N+](=O)[O-])cnc1COP(=O)(N1CC1)N1CC1 [compound 2594] | 5.13 | 6.82 | – |
